Data: patent publication US8455662B2, “Formulations for benzimidazolyl pyridyl ethers” (Novartis AG, priority 2006, dated 2013)

Assay: Aqueous solubility of API at various pHs
Type: physicochemical

Cn1c(Nc2ccc(C(F)(F)F)cc2)nc2cc(Oc3ccnc(-c4ncc(C(F)(F)F)[nH]4)c3)ccc21 [API, {1-methyl-5-[2-(5-trifluoromethyl-1H-imidazol-2-yl)-pyridin-4-yloxy]-1H-benzoimidazol-2-yl}-(4-trifluoromethyl-phenyl)amine]
solubility (aqueous medium, pH 7, aqueous buffer): < 1 µg/mL

Cn1c(Nc2ccc(C(F)(F)F)cc2)nc2cc(Oc3ccnc(-c4ncc(C(F)(F)F)[nH]4)c3)ccc21 [{1-Methyl-5-[2-(5-trifluoromethyl-1H-imidazol-2-yl)-pyridin-4-yloxy]-1H-benzoimidazol-2-yl}-(4-trifluoromethyl-phenyl)amine]
Solubility in water (water): practically insoluble
